The values that follow come from PubChem BioAssay (NCI).

The structures appear in SMILES notation.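 In this assay, cells in 96-well plates receive the compound at five concentrations for 48 hours. Endpoints are linearly interpolated between the surrounding concentrations. Definition used: TGI = concentration required for complete inhibition of growth.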 A value given as a limit tells only on which side of the number the result lay.

Among the test systems are A498 renal; ACHN renal; HCT-116 colon; HCT-15 colon; HOP-62 NSCLC; HOP-92 NSCLC; HT29 colon; M14 melanoma; MDA-N; OVCAR-4 ovarian; OVCAR-8 ovarian; PC-3 prostate; RXF 393 renal; SK-MEL-28 melanoma; SK-MEL-5 melanoma; SNB-19 CNS; SNB-75 CNS; TK-10 renal; U251 CNS; UACC-257 melanoma.
Common to all, as to test: NCI anticancer screen, dose series, 48 h

`CSc1c(C(=O)Nc2ccc(Cl)cc2)c(N)[nH]c(=O)c1C#N`: the TGI was 62.1 µM in the assay on A498 renal; above 100 µM with ACHN renal; 44.3 µM in the assay on HCT-116 colon; above 100 µM with HCT-15 colon; 73 µM in the assay with HOP-62 NSCLC; 59.9 µM with HOP-92 NSCLC. The TGI with HT29 colon was above 66.4 µM; in the assay with M14 melanoma, above 100 µM; with MDA-N, above 70 µM; in the assay on OVCAR-4 ovarian, above 100 µM; in the assay with OVCAR-8 ovarian it was above 88.7 µM; in the assay with PC-3 prostate it was 47.7 µM. Further, the TGI in the assay on RXF 393 renal is above 96.3 µM; with SK-MEL-28 melanoma, above 100 µM; in the assay with SK-MEL-5 melanoma, 64.3 µM; in the assay with SNB-19 CNS it was above 100 µM; in the assay on SNB-75 CNS, above 100 µM; in the assay with TK-10 renal it was above 100 µM. Also, the TGI with U251 CNS is above 71.4 µM; with UACC-257 melanoma, above 93.7 µM.
As for `O=C1N[C@@H]([C@H](CCCCCO)OC(=O)c2ccccc2)CO1`, the TGI with A498 renal, with ACHN renal, with HCT-116 colon, in the assay on HCT-15 colon, with HOP-62 NSCLC and in the assay on HOP-92 NSCLC was above 100 µM in each case. Moreover, the TGI in the assay with HT29 colon, in the assay on MDA-N, with OVCAR-4 ovarian, in the assay with OVCAR-8 ovarian, in the assay with PC-3 prostate and with RXF 393 renal was above 100 µM each time. Moreover, the TGI with SK-MEL-28 melanoma, in the assay with SK-MEL-5 melanoma, with SNB-19 CNS, in the assay on SNB-75 CNS, in the assay on TK-10 renal and in the assay with U251 CNS was above 100 µM throughout. Further, the TGI in the assay with UACC-257 melanoma is above 100 µM.
For `O=C1C=CC(=O)c2c(O)c(N[C@@H](Cc3ccccc3)C(=O)OCc3ccccc3)c(Cl)c(O)c21`, the TGI in the assay with A498 renal was above 10 µM; with ACHN renal, above 10 µM; in the assay with HCT-116 colon it was 4.42 µM; with HCT-15 colon it was above 10 µM; in the assay on HOP-62 NSCLC it was above 10 µM; in the assay on HOP-92 NSCLC it was above 10 µM. In addition, the TGI in the assay on HT29 colon, in the assay with M14 melanoma, in the assay on MDA-N, in the assay on OVCAR-4 ovarian, with OVCAR-8 ovarian and in the assay with PC-3 prostate was above 10 µM in each case. The TGI was above 10 µM in the assay on RXF 393 renal; above 10 µM in the assay with SK-MEL-28 melanoma; 8.18 µM in the assay on SK-MEL-5 melanoma; above 10 µM with SNB-19 CNS; above 10 µM in the assay with SNB-75 CNS; above 10 µM in the assay on TK-10 renal. Further, the TGI with U251 CNS and with UACC-257 melanoma was above 10 µM throughout.
As for `C1=NCCOCCN=Cc2ccccc2OCc2cccc(n2)COc2ccccc21`, the TGI in the assay with A498 renal was above 25 µM; with ACHN renal, above 25 µM; in the assay with HCT-116 colon, above 25 µM; in the assay on HCT-15 colon it was 16.5 µM; with HOP-62 NSCLC, above 25 µM; in the assay with HOP-92 NSCLC, above 25 µM. Moreover, the TGI was 10.9 µM with HT29 colon; above 25 µM in the assay with M14 melanoma; 6.96 µM with MDA-N; above 25 µM in the assay on OVCAR-4 ovarian; 16.9 µM in the assay with OVCAR-8 ovarian; above 25 µM in the assay with PC-3 prostate. Further, the TGI with RXF 393 renal was above 25 µM; in the assay with SK-MEL-28 melanoma, above 25 µM; with SNB-19 CNS it was above 25 µM; in the assay with SNB-75 CNS, 12.9 µM; with TK-10 renal, 20.4 µM; with U251 CNS it was 18.2 µM. For the same compound, the TGI in the assay on UACC-257 melanoma is 21.5 µM.
On to `O=C1CC(CC(OCc2ccccc2)C(COCc2ccccc2)OCc2ccccc2)CC(=O)N1` (stereo not drawn), for which the TGI in the assay with A498 renal is above 100 µM; in the assay with ACHN renal it was above 100 µM; with HCT-116 colon, above 100 µM; in the assay on HCT-15 colon it was above 100 µM; with HOP-62 NSCLC it was above 100 µM; in the assay on HOP-92 NSCLC, 86.1 µM. Besides, the TGI in the assay with HT29 colon was 65.9 µM; with M14 melanoma, above 100 µM; in the assay with MDA-N, 82.4 µM; in the assay with OVCAR-4 ovarian, above 100 µM; in the assay with OVCAR-8 ovarian it was above 100 µM; with PC-3 prostate, 63.9 µM. For the same compound, the TGI is above 100 µM in the assay on RXF 393 renal; above 100 µM in the assay on SK-MEL-28 melanoma; 30.9 µM in the assay on SK-MEL-5 melanoma; above 100 µM in the assay on SNB-75 CNS; above 100 µM in the assay on U251 CNS; above 100 µM in the assay on UACC-257 melanoma.
In the case of `O=C1C(=O)N(C2CCCCC2)C(=S)N1C1CCCCC1`, the TGI in the assay on A498 renal, with ACHN renal, with HCT-116 colon, with HCT-15 colon, in the assay with HOP-62 NSCLC and in the assay with HOP-92 NSCLC was above 100 µM in each case. Besides, the TGI in the assay with HT29 colon, with MDA-N, in the assay with OVCAR-4 ovarian, in the assay on OVCAR-8 ovarian, in the assay on PC-3 prostate and in the assay with RXF 393 renal was above 100 µM throughout. The TGI in the assay with SK-MEL-28 melanoma, with SK-MEL-5 melanoma, in the assay on SNB-19 CNS, with SNB-75 CNS, in the assay on TK-10 renal and in the assay on U251 CNS was above 100 µM throughout. Besides, the TGI with UACC-257 melanoma is above 100 µM.
With `O=[N+]([O-])c1ccc(N=NN2CCCC2)cc1`, the TGI in the assay with A498 renal, in the assay on ACHN renal, with HCT-116 colon, in the assay on HCT-15 colon, with HOP-62 NSCLC and in the assay on HOP-92 NSCLC was above 100 µM in each case. The TGI in the assay on M14 melanoma, in the assay on MDA-N, in the assay with OVCAR-4 ovarian, in the assay on OVCAR-8 ovarian, with PC-3 prostate and in the assay on RXF 393 renal was above 100 µM throughout. Besides, the TGI in the assay on SK-MEL-5 melanoma, in the assay with SNB-19 CNS, in the assay with SNB-75 CNS, in the assay with TK-10 renal, in the assay with U251 CNS and in the assay on UACC-257 melanoma was above 100 µM each time.
